Experimental data from article PMC7180572, “5-Alkylamino-N-phenylpyrazine-2-carboxamides: Design, Preparation, and Antimycobacterial Evaluation” (Molecules, 2020).
In brackets after ≈: the same amount, converted by molar mass. Where two headings read alike, the source gives them in different places.

Key:
[1] = tested on: Mycobacterium tuberculosis H37Ra ITM-M006710 (ATCC 9431); assay: Microdilution broth, modified Microplate Alamar Blue Assay, whole cell growth inhibition; assay type: cell-based; details: Mycobacterium tuberculosis, read-out: MIC Mtb H37Ra
[2] = tested on: Mycobacterium aurum DSM 43999 (ATCC 23366); assay: as above; assay type: cell-based; details: Mycolicibacterium aurum; in vitro, Middlebrook 7H9 broth, resazurin; read-out: MIC Mycobacterium aurum
[3] = tested on: Mycobacterium smegmatis DSM 43465 (ATCC 607); assay: as above; assay type: cell-based; details: Mycolicibacterium smegmatis; in vitro, Middlebrook 7H9 broth, resazurin; read-out: MIC Mycobacterium smegmatis
HepG2 cells = assay: HepG2 cytotoxicity, CellTiter 96 (MTS) assay; assay type: cell-based, human; details: for IC50: Homo sapiens, HepG2, 24 h incubation, > means higher concentration not reproducible due to precipitation, read-out: HepG2 IC50
[4] = tested on: Candida albicans ATCC 24433, CCM 8320; assay: Antifungal microdilution broth method (EUCAST); assay type: cell-based; details: 48 h, standards, read-out: MIC against Candida albicans
[5] = tested on: Candida krusei ATCC 6258, CCM 8271; assay: Antifungal microdilution broth method (EUCAST); assay type: cell-based; details: Pichia kudriavzevii; 48 h, standards; read-out: MIC against C. krusei
[6] = tested on: Candida parapsilosis ATCC 22019, CCM 8260; assay: Antifungal microdilution broth method (EUCAST); assay type: cell-based; details: Lodderomyces parapsilosis; 48 h, standards; read-out: MIC against C. parapsilosis
[7] = tested on: Candida tropicalis ATCC 750, CCM 8264; assay: Antifungal microdilution broth method (EUCAST); assay type: cell-based; details: 48 h, standards, read-out: MIC against C. tropicalis
[8] = tested on: Aspergillus fumigatus ATCC 204305; assay: Antifungal microdilution broth method (EUCAST); assay type: cell-based; details: ATCC204305, 48 h, standards, read-out: MIC against Aspergillus fumigatus
[9] = tested on: Aspergillus flavus CCM 8363; assay: Antifungal microdilution broth method (EUCAST); assay type: cell-based; details: CCM8363, 48 h, standards, read-out: MIC against Aspergillus flavus
[10] = tested on: Absidia corymbifera CCM 8077 (Lichtheimia corymbifera); assay: Antifungal microdilution broth method (EUCAST); assay type: cell-based; details: CCM8077, 48 h, standards, read-out: MIC against Lichtheimia corymbifera
[11] = tested on: Trichophyton interdigitale ATCC 9533, CCM 8377; assay: Antifungal microdilution broth method (EUCAST); assay type: cell-based; details: 72 h, standards, read-out: MIC against Trichophyton interdigitale
[12] = in vitro, Middlebrook 7H9 broth, resazurin

| SMILES | MIC [1, 12] | MIC [2] | MIC [3] | IC50 (HepG2 cells) | further results |
| --- | --- | --- | --- | --- | --- |
| O=C(Nc1ccc(O)cc1)c1cnc(Cl)cn1 [Compound 3, 5-Chloro-N-(4-hydroxyphenyl)pyrazine-2-carboxamide] | 62.5 µg/mL (≈ 250 µM) | ≥ 250 µg/mL | ≥ 250 µg/mL | 350 µM | SI, selectivity index (HepG2 cells; IC50 (HepG2)/MIC against Mtb H37Ra (in µM)): 1.40 |
| Cc1ccc(NC(=O)c2cnc(Cl)cn2)cc1 [Compound 4, 5-Chloro-N-(p-tolyl)pyrazine-2-carboxamide] | ≥ 500 µg/mL | ≥ 500 µg/mL | ≥ 500 µg/mL | > 50 µM | – |
| CCc1ccc(NC(=O)c2cnc(Cl)cn2)cc1 [Compound 5, 5-Chloro-N-(4-ethylphenyl)pyrazine-2-carboxamide] | – | ≥ 500 µg/mL | ≥ 500 µg/mL | > 50 µM | MIC [1]: 250 µg/mL (≈ 955 µM) |
| CCCNc1cnc(C(=O)Nc2ccc(Cl)cc2O)cn1 [Compound 6a, N-(4-chloro-2-hydroxyphenyl)-5-(propylamino)pyrazine-2-carboxamide] | ≥ 500 µg/mL | ≥ 500 µg/mL | 3.91 µg/mL (≈ 12.7 µM) | – | melting point: 248.9 to 250 °C |
| CCCCNc1cnc(C(=O)Nc2ccc(Cl)cc2O)cn1 [Compound 6b, 5-(Butylamino)pyrazine-N-(4-chloro-2-hydroxyphenyl)-2-carboxamide] | ≥ 500 µg/mL | ≥ 500 µg/mL | 3.91 µg/mL (≈ 12.2 µM) | > 50 µM | melting point: 221.8 to 225.4 °C |
| CO[C@H]1/C=C/O[C@@]2(C)Oc3c(C)c(O)c4c(O)c(c(/C=N/N5CCN(C)CC5)c(O)c4c3C2=O)NC(=O)/C(C)=C\C=C\[C@H](C)[C@H](O)[C@@H](C)[C@@H](O)[C@@H](C)[C@H](OC(C)=O)[C@@H]1C [RIF, rifampicin, reference compound] | 0.0039 to 0.0078 µg/mL (≈ 0.00474 to 0.00948 µM) | 0.39 to 0.78 µg/mL (≈ 0.474 to 0.948 µM) | 6.25 to 12.5 µg/mL (≈ 7.59 to 15.2 µM) | – | – |
| C[C@@H](c1ncncc1F)[C@](O)(Cn1cncn1)c1ccc(F)cc1F [voriconazole, reference compound] | – | – | – | – | MIC [4]: > 16 µg/mL; MIC [5]: 0.5 µg/mL (≈ 1.43 µM); MIC [6]: 8 µg/mL (≈ 22.9 µM); MIC [7]: > 16 µg/mL; MIC [8]: 1 µg/mL (≈ 2.86 µM); MIC [9]: > 16 µg/mL; MIC [10]: > 16 µg/mL; MIC [11]: > 16 µg/mL |
